Experimental data reported in patent US20260241062A1, “WATER-DISPERSED PRESSURE-SENSITIVE ADHESIVE COMPOSITION AND PRESSURE-SENSITIVE ADHESIVE SHEET” (NITTO DENKO CORPORATION, priority 2023, published 2026).
Read-outs that look alike come from different tables or passages of the source.

Key:
[1] = acid dissociation constant (pKa) of the monomers
[2] = at 20° C.; cited from earlier work
[3] = acid dissociation constant of each component

Row | Compound | pKa [1] | Water solubility [2] | pKa [1, 3]
1 | C=CN1CCCC1=O [NVP, N-vinylpyrrolidone] | -0.34 | Miscible | –
2 | C=CC(=O)N(CC)CC [DEAA, diethylacrylamide] | – | Soluble | −0.77
3 | C=C(C)C(=O)OC [MMA, methyl methacrylate] | – | 1.6 g/100 mL | –
4 | 2-acryloyloxyethyl succinic acid [HOA-MS] | – | – | 4.35
5 | C=C(C)C(=O)O [MAA, methacrylic acid] | 4.66 | 9.7 g/100 mL | –
6 | C=CC(=O)NC(C)C [NIPAM, N-isopropylacrylamide] | 14.8 | <0.1 g/100 mL | –
7 | C=CC(=O)NCCCN(C)C [DMAPAA, dimethylaminopropylacrylamide] | – | Soluble | 14.88
8 | C=CC(=O)N1CCOCC1 [ACMO, N-acryloylmorpholine] | -1.08 | – | –
